From US20100197588A1, “USE OF A PEPTIDE AS A THERAPEUTIC AGENT” (priority 2007, published 2010)
Where no end group is shown, it is not given here.

Assays:
Interleukin-2 (IL-2) = test: Th1/Th2 cytokine profiling assay, IL-2; settings: 10 micrograms per ml; Ovalbumin-restimulated Balb/c spleen cells, 72 hours
Excerpt: (§1) The Balb/c mice (originated in 1923, it is a popular strain and is used in many different research disciplines. Also classified as an inbred from the production of 20 or more successive brother-sister matings, the Balb/c mouse is albino and small in size) were immunized on Days 1, 15, and 29 with Ovalbumin (Ovalbumin is the main protein found in egg white, commonly used to stimulate an immunological reaction in test animals) in PBS (5 micrograms/injection). On day 50, spleens of the mice were harvested (3 weeks after last boost with Ovalbumin). […] Thereafter, additional Ovalbumin was added to the cells at 10 micrograms/ml for in vitro restimulation of the cells. 72 hours later, cell supernatants were harvested and assayed using the Becton Dickinson Mouse Th1/Th2 Cytokine CBA Kit. This kit can be used to measure Interleukin-2 (IL-2), Interleukin-4 (IL-4), Interleukin-5 (IL-5), Interferon-γ (IFN-γ), and Tumor Necrosis Factor-α (TNF-α) protein levels in a single sample.

[1] = tested on: hepatitis B virus (HBV) ayw strain; test: HBV experimental assay system, secreted HBV DNA by TaqMan PCR in HepG2-2.2.15 cells; format: cell-based; settings: 10 micrograms per ml, six days
Excerpt: HepG2-2.2.15 is a stable cell line containing the hepatitis B virus (HBV) ayw strain genome (ATCC Cat. No. CRL-11997). Antiviral compounds blocking any late step of viral replication such as transcription, translation, pregenome encapsidation, reverse transcription, particle assembly and release can be identified and characterized using this cell line. In this assay, an active compound will reduce the production of secreted HBV from cells, measured by utilizing real time quantitative PCR (TaqMan) assay to directly and accurately measure HBV DNA copies.
HepG2-2.2.15 cells were plated in 96-well microtiter plates. After 16-24 hours the confluent monolayer of HepG2-2.2.15 cells was washed and the medium was replaced with complete medium containing test peptides—10 micrograms per ml—in duplicate. […] Six days following the initial administration of the peptides, the cell culture supernatants was collected, treated with pronase and DNAse and then used in a real-time quantitative TaqMan PCR assay. The PCR-amplified HBV DNA was detected in real-time by monitoring increases in fluorescence signals that result from the exonucleolytic degradation of a quenched fluorescence probe molecule that hybridizes to the amplified HBV DNA. […] Antiviral activity was calculated from the reduction in HBV DNA levels (% virus control). […]

Interferon-γ (IFN-γ) = test: Th1/Th2 cytokine profiling assay, IFN-γ; settings: 10 micrograms per ml; Ovalbumin-restimulated Balb/c spleen cells, 72 hours
Excerpt: (§2) The Balb/c mice (originated in 1923, it is a popular strain and is used in many different research disciplines. Also classified as an inbred from the production of 20 or more successive brother-sister matings, the Balb/c mouse is albino and small in size) were immunized on Days 1, 15, and 29 with Ovalbumin (Ovalbumin is the main protein found in egg white, commonly used to stimulate an immunological reaction in test animals) in PBS (5 micrograms/injection). On day 50, spleens of the mice were harvested (3 weeks after last boost with Ovalbumin). […] Thereafter, additional Ovalbumin was added to the cells at 10 micrograms/ml for in vitro restimulation of the cells. 72 hours later, cell supernatants were harvested and assayed using the Becton Dickinson Mouse Th1/Th2 Cytokine CBA Kit. This kit can be used to measure Interleukin-2 (IL-2), Interleukin-4 (IL-4), Interleukin-5 (IL-5), Interferon-γ (IFN-γ), and Tumor Necrosis Factor-α (TNF-α) protein levels in a single sample. The kit performance has been optimized for analysis of physiologically relevant concentrations (μg/ml levels) of specific cytokine proteins in tissue culture supernatants and serum samples.

Interleukin-5 (IL-5) = test: Th1/Th2 cytokine profiling assay, IL-5; settings: 10 micrograms per ml; Ovalbumin-restimulated Balb/c spleen cells, 72 hours
Excerpt: as §1

[2] = tested on: Primary Human endothelial cells (HUVEC); test: Endothelial cell migration assay; settings: 10 micrograms per ml, 22 hours
Description: Primary Human endothelial cells (HUVEC) were seeded in insert chambers with 3 micrometer pore size of multi-transwell plate for 6 hours at 37° C. in Endothelial Cell Basal Medium (EBM) supplemented with 0.1% bovine serum albumin. Thereafter, designated concentration of testing peptides—10 micrograms per ml—was added in duplicate wells. The endothelia were allowed to migrate for 22 hours at 37° C., then, migrated cells were fixed and stained with Hoechst 33342 dye. Images of 3 fields per insert were taken and the number of migrated cells per field were quantified using the ImageProPlus software. Data were analyzed for the average number of the migrated cells and standard deviation of six data points for each treatment condition. […] Statistic p values were computed using the Student's t-test.

[3] = tested on: Human Peripheral Blood Mononuclear Cells (PBMC), B cell proliferation; test: B cell proliferation assay (SAC plus Interleukin-2 stimulated PBMC, 3H-thymidine); settings: 10 micrograms per ml, 3 days
Description: Human Peripheral Blood Mononuclear Cells (PBMC) were obtained from normal human donors. The B cell proliferation was induced by stimulation of the cells with the B cell mitogen Staphylococcus aureus Cowans I (SAC) plus Interleukin-2, either in the absence (positive proliferation control), or in the presence of test peptides—10 micrograms per ml—to examine their effects on the B cell response. 10^5/well PBMC were plated in 96-well microtiter plates and assayed in duplicate with the peptides. […] At the end of incubation time, the plates were harvested and the cells counted by liquid scintillation for the incorporation of ^3H-thymidine as a measure of B cell proliferation.

Interleukin-4 (IL-4) = test: Th1/Th2 cytokine profiling assay, IL-4; settings: 10 micrograms per ml; Ovalbumin-restimulated Balb/c spleen cells, 72 hours
Excerpt: as §1

A549 cells = test: Apoptosis prevention assay (C2 ceramide, Annexin-5); settings: 10 micrograms per ml, 30 min pretreatment, then C2 ceramide, combination 0.95 mole peptide 1 and 1.05 mole peptide 2
Description: Human A549 cells (carcinomic human alveolar basal epithelial cells) were utilized in the experiments employing the Annexin-5 apoptosis assay. […] A549 cells were pretreated for 30 min with test peptides—10 micrograms per ml—followed by the exposure to C2 ceramide.

HUVEC = test: Endothelial tube formation assay; settings: 10 micrograms per ml, 20 hours, combination peptide 1:peptide 2 0.95 mole:1.05 mole
Description: The endothelial tube formation assay is based on the ability of endothelial cells to form three-dimensional capillary-like tubular structures when cultured on a gel of basement membrane extract. […] Pre-labeled HUVEC with Calcein AM were seeded in a 96-well culture plate coated with extracellular metrix (Chemicon international Cat. ECM625) and treated with test peptides—10 micrograms per ml—in full growth medium. Positive control was vehicle only. The endothelial cells were allowed to form tubes for 20 hours and were then examined under an inverted fluorescent microscope. Duplicate wells for each treatment were photographed and quantitatively analyzed for an average tubule length using image analysis software ImageProPlus. Raw data were expressed as average tubule lengths in pixels ±standard deviation. Statistic p values were computed using the Student's t-test.

[4] = tested on: Tumor Necrosis Factor-α (TNF-α); test: Th1/Th2 cytokine profiling assay, TNF-α; settings: 10 micrograms per ml; Ovalbumin-restimulated Balb/c spleen cells, 72 hours
Excerpt: as §2

HIV-1IIIB = test: HIV-1 antiviral assay in CEM-SS cells (MTS readout)
HCMV strain AD169 = test: HCMV plaque formation assay in MRC-5 cells

Row | Molecule | IL-2 spleen cells (% of control) (Interleukin-2 (IL-2)) | inhibition of HBV replication as compared to the virus control infection [1] | IFNγ spleen cells; TH1 response (% of control) (Interferon-γ (IFN-γ)) | IL-5 spleen cells; TH2 response (% of control) (Interleukin-5 (IL-5)) | induction of the migration of endothelial cells [2] [%] | induction of the proliferation of specifically stimulated human B-cells [3] | IL-4 spleen cells; TH2 response (% of control) (Interleukin-4 (IL-4)) | induction of the ceramide-induced apoptosis on human lung cells (A549 cells) | induction of the tube formation of human endothelial cells (HUVEC) [%] | TNF-a spleen cells; TH1 response (% of control) [4] | antiviral activity of positive control compounds (HIV-1) (HIV-1IIIB) | inhibition of the migration of endothelial cells ([2]; combination peptide 1:peptide 2 0.95 mole:1.05 mole) [%] | antiviral activity of positive control compound (HCMV) (HCMV strain AD169)
1 | Ac-Met-Trp-Asp-Phe-Asp-Asp-Leu-Asn-Phe-Thr-Gly-Met-Pro-Pro-Ala-Asp-Glu-Asp-Tyr-Ser-Pro-NH2 (Ac-MWDFDDLNFTGMPPADEDYSP-NH2) [peptide 2] | 63.0 % of control | no effect | 59.2 % of control | 59.3 % of control | 9 | does not show any induction | 136.3 % of control | 19.65% | 32 | 90.3 % of control | – | – | –
2 | CC(C)(C)NC(=O)[C@@H]1CN(Cc2cccnc2)CCN1C[C@@H](O)C[C@@H](Cc1ccccc1)C(=O)N[C@H]1c2ccccc2C[C@H]1O [indinavir] | – | – | – | – | – | – | – | – | – | – | expected levels of antiviral activity | – | –
3 | His-Ser-Asp-Gly-Ile-Phe-Thr-Asp-Ser-Tyr-Ser-Arg-Tyr-Arg-Lys-Gln-Met-Ala-Val-Lys-Lys-Tyr-Leu-Ala-Ala-Val-Leu-Gly-Lys-Arg-Tyr-Lys-Gln-Arg-Val-Lys-Asn-Lys-NH2 (HSDGIFTDSYSRYRKQMAVKKYLAAVLGKRYKQRVKNK-NH2) [peptide 1] | 0.0 % of control | 48.0% | 60.8 % of control | 63.0 % of control | – | 23.3% | 120.1 % of control | did not induce | 36 | 94.0 % of control | – | 6 | –
4 | Nc1nc(O)c2ncn(COC(CO)CO)c2n1 [Ganciclovir] | – | – | – | – | – | – | – | – | – | – | – | – | expected levels of antiviral activity
5 | Cc1cn([C@H]2C[C@H](N=[N+]=[N-])[C@@H](CO)O2)c(=O)[nH]c1=O [AZT] | – | – | – | – | – | – | – | – | – | – | expected levels of antiviral activity | – | –
